“Also recorded” adds a separate entry of the source. Like-named read-outs stand apart in the source and are kept apart here.
Key:
[1] = STZ induced diabetes, von Frey filament mechanical pain threshold; assay type: in vivo, rat; conditions: STZ treated diabetic control rats vs non-treated control rats
Method: Von Frey Filament Test (Chang model): The effect of compounds on mechanical allodynia can be determined by the von Frey filament test in rats with a tight ligation of the L-5 spinal nerve: a model of painful peripheral neuropathy. The surgical procedure is performed as described by Kim et al., Pain 50: 355-363 (1992). A calibrated series of von Frey filaments are used to assess mechanical allodynia (Chaplan et al., J. Neurosci. Methods 53: 55-63 (1994)). Filaments of increasing stiffness are applied perpendicular to the midplantar surface in the sciatic nerve distribution of the left hindpaw. The filaments are slowly depressed until bending occurred and are then held for 4-6 seconds. Flinching and licking of the paw and paw withdrawal on the ligated side are considered positive responses.
Since many patients with diabetes mellitus also suffer from hyperalgesia-derived neuropathic pain, the Trpc4(−/−) rats were studied for this indication. Groups of control and Trpc4 knockout rats were treated with streptozotocin (STZ) in order to induce diabetes. Rats were defined to be in a diabetic state if hyperglycemia and glucosuria occurred. The mechanical induced von Frey filament method was again used to establish altered pain response. When STZ non-treated control rats were compared to STZ diabetic control rats the pain response to mechanical induction was very drastic. […]

TRPC4 [2] = conditions: HEK cells, cited from earlier work
[3] = Paclitaxel induced cold allodynia, acetone cold response; assay type: in vivo, rat
Method: Cancer patients who are treated with chemotherapy drugs such as paclitaxel often display sensory abnormalities and symptoms of neuropathic pain such as sudden unexplainable pain attacks. In order to study the effects of cation channels on paclitaxel induced pain, Trpc4−/− rats were treated with the anti-cancer drug. Since one of the major symptoms of patients who are treated with paclitaxel is cold allodynia, control and Trpc4−/− rats were exposed to paclitaxel and tested for acetone cold response. Previously control non-paclitaxel treated and paclitaxel treated WT rats were studied for differences in cold allodynia. Based on established cold score calculations the non-treated rats scored an average of 8 while the paclitaxel treated WT rats scored an average of 15. […] When control and Trpc4−/− treated rats were compared the difference in pain sensitivity was dramatic. […] The reversion to nearly wild type cold allodynia score was remarkable in Trpc4 knockout rats.

TRPC4 [4] = conditions: dominant negative N-term fragment; cited from earlier work

CN(N=O)C(=O)N[C@H]1C(O)O[C@H](CO)[C@@H](O)[C@@H]1O (mixture of isomers) [STZ, streptozotocin]
decrease of threshold for pain [1]: 40%

C=O [Formalin]
duration of nociceptive activity (rubbing face and flipping the head) (Formalin 1.5% 50 μl sc upper lip): 25 to 30 min | start of the activity (wild type rats, Formalin 1.5% 50 μl sc): 10 to 12 s

Cl.NCCCCCCNS(=O)(=O)c1cccc2c(Cl)cccc12 [W-7, N-(6-Aminohexyl)-5-chloro-1-naphthalenesulfonamide hydrochloride]
effect on TRPC4 current (TRPC4 [2]; hydrochloride): significantly decreases TRPC4 current; also recorded: inhibited

Clc1ccc(C(c2ccc(Cl)cc2)n2cc[n+](CC(OCc3ccc(Cl)cc3Cl)c3ccc(Cl)cc3Cl)c2)cc1 (stereo not drawn) [calmidazolium]
effect on TRPC4 current (TRPC4 [2]): not inhibited | effect on TRPC4 current (TRPC4 [2]; listed as CMZ): unable to inhibit TRPC4 current

CC(=O)O[C@H]1C(=O)[C@@]2(C)[C@H]([C@H](OC(=O)c3ccccc3)[C@]3(O)C[C@H](OC(=O)[C@H](O)[C@@H](NC(=O)c4ccccc4)c4ccccc4)C(C)=C1C3(C)C)[C@]1(OC(C)=O)CO[C@@H]1C[C@@H]2O [paclitaxel]
cold score ([3]; paclitaxel treated Trpc4 knockout rats): 9 | cold score (average) ([3]; paclitaxel treated WT rats, non-treated rats scored 8): 15

B1: first ankyrin domain: dominant negative N-term fragment of TRPC4, residues 61-121 (rat and mouse sequence in b219) (protein, UniProt Q9QUQ5 61-121, looked up, fragment)
chain: ININCIDPLGRTALLIAIENENLELIELLLSFNVYVGDALLHAIRKEVVGAVELLLNHKKP
suppression of TRPC4 currents (TRPC4 [4]): successfully suppress TRPC4 currents

Source: patent US20120148604A1, “TRP INHIBITORS AND USES THEREOF” (TRANSPOSAGEN BIOPHARMACEUTICALS, INC., priority 2009, published 2012)
